Assays:
[1] = tested on: branch of the superior sagittal sinus in the brains; test: Transection of a branch of the superior sagittal sinus in the brain, hemostasis; type: in vivo, rats
Procedure: (§1) Animals were anesthetized with an i.p. injection of ketamine (80 mg/kg) and xylazine (8 mg/kg). All surgical procedures were conducted under an operating microscope. Twenty-two animals, including 10 adult hamsters and 12 young adult female Spraque-Dawley rats (200-250 g), were treated with either iced saline or 20 μl of a 1% peptide solution at the site of the sinus branch transection. The material was prepared by dissolving RADA 16-1 (n-RADARADARADARADA-c; SEQ ID NO: 1) peptide in sterile water, and the peptide-containing solution was applied to the injured tissue with a 31 gauge needle attached to a 2 cc syringe.
(§2) The experiment was videotaped with a time stamp and was replayed one frame at a time to evaluate the length of time required for the peptide solution to form a gel, which effectively impeded bleeding. Hemostasis was assessed visually, and “complete hemostasis” was defined as the complete lack of movement of blood from the wound site.
Durations were measured from the start of application of peptide solution to the completion of hemostasis after transection of the veins leading to the sinus in the brains of adult rats. […] In the saline controls, cessation of bleeding was never achieved. The saline control experiment was terminated at the same time point in order to prevent the animals from bleeding to death.

[2] = tested on: branch of the superior sagittal sinus in the brains; test: as above; type: in vivo; conditions: hamsters; 20 μl of a 1% peptide solution at the site of the sinus branch transection; all cases
Procedure: as §1, §2

[3] = tested on: superior sagittal sinus; test: Complete transection of the superior sagittal sinus, hemostasis; type: in vivo; conditions: control animals that continued to bleed after 20 seconds
From the text: A higher concentration of peptide (e.g., approximately 3%-4%) was used in the latter experiment in order to achieve hemostasis. The three saline control cases continued to bleed after 20 seconds.

[4] = tested on: femoral artery; test: Femoral artery transection, hemostasis; type: in vivo, adult rats
Procedure: The sciatic nerve and the adjacent femoral artery were exposed in adult rats, and the femoral artery was transected. Twelve rats were treated by application of 20 μl of a 1% solution of RADA 16-I (SEQ ID NO: 1) peptide to the site of transection using a glass pipette attached to a syringe body, while controls were treated by applying cold saline to the site of transection. […] The saline control cases continued to bleed until the experiment was terminated at 110 seconds.
A series of pictures was taken in an adult rat in which the femoral artery was transected. In the picture taken first, the sciatic nerve and the femoral artery are exposed. […] The assembled material can be suctioned off the site easily if desired.

[5] = tested on: spinotrapezius muscles; test: Muscle trauma, cut in spinotrapezius muscle on the back, hemostasis; type: in vivo, rat; conditions: 1% peptide solution applied in deep cut, 1-2 cm incisions
From the text: (§3) The spinotrapezius muscles on the back of the rats were exposed and a deep cut was made in the muscle, after which 1% peptide solution (RADA16-I) (SEQ ID NO: 1) was applied in the cut. Within 10 seconds, all bleeding had stopped. With the application of iced saline alone, control animals continued to bleed after 20 seconds.

[6] = tested on: muscle of the hind limb (porteocaudalis and musculus tibialis cranialis); test: Muscle trauma, hind limb muscle and limb wounds, hemostasis; type: in vivo, rat
From the text: as §3, with “seconds. […] However when an artery or vein was transected 2% or higher material was needed to bring about hemostasis.[…]” for “seconds.”

[7] = tested on: liver, lobus sinister lateralis; test: Liver cut, rostral to caudal, vessel of relatively low pressure, hemostasis; type: in vivo, adult rat; conditions: 1% peptide solution applied topically and in the cut
From the text: Profuse bleeding ensued. A 1% peptide solution (RADA16-1) (SEQ ID NO: 1) was applied to the cut and in its vicinity using a 27 gauge needle and 4 cc syringe. All bleeding stopped within 10 seconds. A series of pictures was obtained. […] After treating the site with 1% peptide solution (applied topically and in the cut), all bleeding stopped within 10 seconds. A clear area was observed between the two halves of the lobus sinister lateralis. This procedure was repeated several times with the same result.

[8] = tested on: liver, lobus sinister lateralis and a major branch of the portal vein; test: Liver transverse cut with major branch of the portal vein, higher pressure, hemostasis; type: in vivo, rat
Procedure: A series of pictures illustrate the experiment. […] The cut was treated with 4% peptide solution applied topically and in the cut. All bleeding stopped within 10 seconds. […] Thus, application of 4% peptide solution brings about complete hemostasis in a high pressure bleeding environment in less than 10 seconds. […] This procedure was repeated several times with the same result.

[9] = tested on: lobus sinistras laterialis of the liver; test: Removal of ¼ of the liver lobe, topical treatment of the margin, hemostasis; type: in vivo
Procedure: In other experiments ¼ of the lobe in the lower right quadrant of the lobus sinistras laterialis was removed, and the margin was treated with a topical application of 2% peptide (RADA16-I) (SEQ ID NO: 1) to the site of injury. Bleeding stopped in less than 10 seconds.

[10] = tested on: liver; test: 4 mm liver punch biopsy, adhesions; type: in vivo, adult rats; conditions: punch filled with 3%; survival 2 d, 7 d, 14 d, 6 w, 8 w
Procedure: The liver of 18 adult rats was exposed under deep anesthesia, the upper right lobe was punched by a 4 mm punch, then the wound was treated with 3% NHS-1. Animals were allowed to survive 2 d, 7 d, 14 d, 6 w, and 8 w respectively, then the animals were anesthetized again and the punched lobe of liver was dissected and processed for H&E staining. In addition a set of controls were treated with either saline or cautery. 4 mm liver punch biopsy experiment with control and filling of punch with 3% RADA. All of the controls had adhesions on both surfaces while the treated had no adhesions. In the 2 week, 6 week and 8 week controls adhesions were cut away on the upper and lower surfaces. On all the 3% RADA treated cases there were no adhesions on with the upper or lower surface of the liver.

[11] = tested on: intestine at the level of the duodenum; test: Perforation of the intestine at the level of the duodenum, leakage of gastric fluid; type: in vivo, adult rat
Procedure: An additional volume of 2% peptide solution was injected into the duodenum at the level of the injury. […] In the control cut at the level of the duodenum, the wall of the intestine inverted and gastric fluids continued to leak from the site of injury when left untreated.

[12] = tested on: skin and subcutaneous tissue; test: 4 mm punch biopsy of skin and subcutaneous tissue, healing test; type: in vivo
Procedure: The regions from which the biopsies were taken were either treated by a single application of self-assembling peptide (RADA16-I) (SEQ ID NO: 1) solution or were left untreated. The wounds were left unbandaged. A series of pictures of a 4 mm punch biopsy healing test in which injured animals were treated with the self assembling peptide and compared to matching cases with no treatment illustrates the results. The wounds were photographed on day 0, day 1, day 4, and day 7. […] Treatment with the peptide appeared to speed healing by as much as 5 days in some cases.

n-RADARADARADARADA-c [RADA16-I]
hemostasis five seconds after the peptide solution was applied ([1]; adult rat, one of the veins of the superior sagittal sinus transected, series of pictures): Complete hemostasis was achieved
average duration from start of application of peptide solution to completion of hemostasis ([1]; adult rats, transection of the veins leading to the sinus): 8.3 s
time to complete hemostasis after application of the peptide solution ([1]; rats, 20 μl of a 1% peptide solution at the site of the sinus branch transection, all cases): ≤ 10 s
time to complete hemostasis after application of the peptide solution [2]: ≤ 10 s
hemostasis after iced saline was removed and the peptide solution was applied [3]: complete hemostasis almost immediately
time to hemostasis ([4]; 20 μl of a 1% solution at the site of transection, twelve rats, all treated cases): less than 10 seconds
time at which complete hemostasis was observed ([4]; adult rat, series of pictures): about five
hemostasis after replacement of the cold saline with the peptide solution ([4]; control animals that bled until 110 seconds): almost immediate achievement of complete hemostasis
time complete hemostasis was maintained ([4]; duration of the test): 1 h
time until all bleeding had stopped [5]: ≤ 10 s
hemostasis in limb wounds ([6]; between 1% to 100% peptide applied): hemostasis was achieved in all cases
concentration of material needed to bring about hemostasis ([6]; when an artery or vein was transected): ≥ 2%
time until all bleeding stopped [7]: ≤ 10 s
hemostasis ([8]; 1% solution): partial cessation of bleeding
hemostasis ([8]; 2% peptide solution): complete hemostasis was also achieved
hemostasis ([8]; 3% peptide solution): complete hemostasis was also achieved
bleeding ten minutes later ([8]; 4% peptide solution): still no bleeding
bleeding under physical stress (lower part of lobe pulled downward) ([8]; 4% peptide solution): did not bleed
hemostasis after excess peptide structure was wiped away ([8]; 30 seconds after treatment): hemostasis was maintained
hemostasis at the margin of the liver after the peptide was removed ([9]; 2% peptide, removed one minute later): complete hemostasis was achieved
time until bleeding stopped ([9]; topical application of 2% peptide to the margin): less than 10 seconds
adhesions on the upper or lower surface of the liver [10]: no adhesions
progression of the intestinal wall inversion ([11]; control cut treated 15 minutes after the injury): stopped the progression
leakage from the injury site ([11]; control cut treated with peptide solution 15 minutes after the injury): stopped all leakage
leakage of gastric fluids from the intestine ([11]; site treated with 2% peptide solution): all leakage of gastric fluids from the intestine stopped
shrinkage of the wound site versus untreated ([12]; all cases): happened faster
healing of treated wounds versus no treatment ([12]; single application, contraction of the wound site as early as day 1): healed much faster
speeding of healing ([12]; single application, in some cases): ≤ 5 days

— US10682386B2, “Compositions for prevention of adhesions and other barrier applications” (Arch Biosurgery, Inc., priority 2006, dated 2020)
